Measured values reported in US9617286B2, “Fungicide N-[(trisubstitutedsilyl)methyl]-carboxamide derivatives” (BAYER INTELLECTUAL PROPERTY GMBH, priority 2011, dated 2017).

Legend:
Puccinia recondita = test: In vivo preventive test on Puccinia recondita (brown rust on wheat); conditions: preventive spray, 500 ppm of active ingredient, grading 12 days after contamination
Protocol: Wheat plants (“Scipion” variety), sown in starter cups on a 50/50 peat soil pozzolana substrate and grown at 22° C., are treated at the 1 leaf stage (10 cm height) by spraying with the active ingredient prepared as described above. Plants, used as controls, are treated with the mixture of acetone/tween/DMSO/water not containing the active material. After 24 hours, the plants are contaminated by spraying the leaves with an aqueous suspension of Puccinia recondita spores (100 000 spores per mL). The spores are collected from an infected plant and are suspended in water containing 2.5 mL/L of Tween 80 at 10%. The contaminated wheat plants are incubated for 24 hours at 20° C. and at 100% relative humidity, and then for 10 days at 20° C. and at 70-80% relative humidity. Grading (% of efficacy) is carried out 12 days after the contamination, in comparison with the control plants.

[1] = log P by HPLC on reversed-phase column (C 18), EEC Directive 79/831 Annex V.A8; type: physicochemical; conditions: 40° C., 0.1% aqueous formic acid and acetonitrile, linear gradient 10% to 90% acetonitrile
Protocol: In table 1, the log P values were determined in accordance with EEC Directive 79/831 Annex V.A8 by HPLC (High Performance Liquid Chromatography) on a reversed-phase column (C 18), using the method described below:
Temperature: 40° C.; Mobile phases: 0.1% aqueous formic acid and acetonitrile; linear gradient from 10% acetonitrile to 90% acetonitrile.
Calibration was carried out using unbranched alkan-2-ones (comprising 3 to 16 carbon atoms) with known log P values (determination of the log P values by the retention times using linear interpolation between two successive alkanones). lambda-max-values were determined using UV-spectra from 200 nm to 400 nm and the peak values of the chromatographic signals.

Septoria tritici = test: In vivo preventive test on Septoria tritici (wheat); conditions: preventive spray, 500 ppm of active ingredient, grading 24 days after contamination
Protocol: Wheat plants (“Scipion” variety), sown in starter cups on a 50/50 peat soil pozzolana substrate and grown at 22° C., are treated at the 1 leaf stage (10 cm height) by spraying with the active ingredient prepared as described above. Plants, used as controls, are treated with the mixture of acetone/tween/DMSO/water not containing the active material. After 24 hours, the plants are contaminated by spraying the leaves with an aqueous suspension of cryopreserved Septoria tritici spores (500 000 spores per mL). The contaminated wheat plants are incubated for 72 hours at 18° C. and at 100% relative humidity, and then for 21 days at 90% relative humidity. Grading (% of efficacy) is carried out 24 days after the contamination, in comparison with the control plants.

Sphaerotheca fuliginea = test: In vivo preventive test on Sphaerotheca fuliginea (powdery mildew on cucurbits); conditions: gherkin plants, preventive spray, 500 ppm of active ingredient, grading 12 days after contamination
Protocol: Gherkin plants (“Vert petit de Paris” variety), sown in starter cups on a 50/50 peat soil-pozzolana substrate and grown at 24° C., are treated at the Z11 cotyledon stage by spraying with the active ingredient prepared as described above. Plants, used as controls, are treated with the mixture of acetone/tween/DMSO/water not containing the active material. After 24 hours, the plants are contaminated by spraying the cotyledons with an aqueous suspension of Sphaerotheca fuliginea spores (100 000 spores per mL). The spores are collected from infected plants. The contaminated gherkin plants are incubated at about 20° C. and at 70-80% relative humidity. Grading (% of efficacy) is carried out 12 days after the contamination, in comparison with the control plants.

Alternaria brassicae = test: In vivo preventive test on Alternaria brassicae (leaf spot on radish); conditions: preventive spray, 500 ppm of active ingredient, grading 6 days after contamination
Protocol: Radish plants (“Pernod Clair” variety), sown in starter cups on a 50/50 peat soil pozzolana substrate and grown at 17° C., are treated at the cotyledon stage by spraying with the active ingredient prepared as described above. Plants, used as controls, are treated with the mixture of acetone/tween/DMSO/water not containing the active material. After 24 hours, the plants are contaminated by spraying the cotyledons with an aqueous suspension of Alternaria brassicae spores (50 000 spores per mL). The spores are collected from a 15-day-old culture. The contaminated radish plants are incubated at 20° C. and at 100% relative humidity. Grading (% of efficacy) is carried out 6 days after the contamination, in comparison with the control plants.

Pyrenophora teres = test: In vivo preventive test on Pyrenophora teres (barley); conditions: preventive spray (DMF/alkylaryl polyglycol ether), 500 ppm of active ingredient, evaluated 7-9 days after inoculation
Protocol: Solvent: 49 parts by weight of N,N-dimethylformamide Emulsifier: 1 part by weight of alkylaryl polyglycol ether To produce a suitable preparation of active compound, 1 part by weight of active compound is mixed with the stated amounts of solvent and emulsifier, and the concentrate is diluted with water to the desired concentration. To test for preventive activity, young plants are sprayed with the preparation of active compound at the stated rate of application. One day after this treatment, the plants are inoculated with an aqueous spore suspension of Pyrenophora teres. The plants remain for 48 hours in an incubation cabinet at 22° C. and a relative atmospheric humidity of 100%. Then the plants are placed in a greenhouse at a temperature of approximately 20° C. and a relative atmospheric humidity of approximately 80%.

Alternaria solani = test: In vivo preventive test on Alternaria solani (tomato); conditions: preventive spray, 500 ppm of active ingredient, evaluated 7 days after inoculation
Protocol: Solvent: 49 parts by weight of N,N-dimethylformamide Emulsifier: 1 part by weight of alkylaryl polyglycol ether To produce a suitable preparation of active compound, 1 part by weight of active compound is mixed with the stated amounts of solvent and emulsifier, and the concentrate is diluted with water to the desired concentration. To test for preventive activity, young plants are sprayed with the preparation of active compound at the stated rate of application. One day after this treatment, the plants are inoculated with an aqueous spore suspension of Alternaria solani. The plants remain for one day in an incubation cabinet at approximately 22° C. and a relative atmospheric humidity of 100%. Then the plants are placed in an incubation cabinet at approximately 20° C. and a relative atmospheric humidity of 96%.

Row | logP [1] | Compound | Efficacy (Puccinia recondita) [%] | Efficacy (Septoria tritici) [%] | Efficacy (Sphaerotheca fuliginea) [%] | Efficacy (Alternaria brassicae) [%] | Efficacy (Pyrenophora teres) [%] | Efficacy (Alternaria solani) [%]
1 | 2.61 | C[Si](C)(CNC(=O)c1cccnc1Cl)c1ccccc1 [Example 3] | 75 | 90 |  |  |  | 
2 | 3.44 | C[Si](C)(CN(C(=O)c1cccnc1C(F)F)C1CC1)c1ccccc1 [Example 5] |  | 80 | 89 | 96 |  | 
3 | 3.15 | C[Si](C)(CNC(=O)c1nccnc1C(F)(F)F)c1ccccc1 [Example 7] |  | 93 |  |  | 100 | 
4 | 3.89 | C[Si](C)(CN(C(=O)c1cccnc1C(F)(F)F)C1CC1)c1ccccc1 [Example 8] |  | 100 |  | 88 | 100 | 
5 | 4.13 | C[Si](C)(CN(C(=O)c1nccnc1C(F)(F)F)C1CC1)c1ccccc1 [Example 9] |  | 86 |  |  | 100 | 
6 | 4.41 | Cc1ccccc1[Si](C)(C)CN(C(=O)c1nccnc1C(F)(F)F)C1CC1 [Example 10] |  | 79 | 78 | 88 | 100 | 
7 | 4.18 | Cc1ccccc1[Si](C)(C)CN(C(=O)c1cccnc1C(F)(F)F)C1CC1 [Example 11] | 88 |  | 94 | 88 | 97 | 
8 | 3.73 | Cc1ccccc1[Si](C)(C)CN(C(=O)c1cccnc1C(F)F)C1CC1 [Example 12] |  | 79 |  | 88 | 97 | 
9 | 3.80 | Cc1ccccc1[Si](C)(C)CN(C(=O)c1cccnc1Cl)C1CC1 [Example 13] |  | 97 |  |  | 100 | 
10 | 3.96 | C[Si](C)(CN(C(=O)c1cccnc1C(F)(F)F)C1CC1)c1ccccc1F [Example 15] | 75 | 71 | 72 |  | 100 | 
11 | 3.51 | C[Si](C)(CN(C(=O)c1cccnc1C(F)F)C1CC1)c1ccccc1F [Example 16] |  | 71 |  | 95 | 100 | 
12 | 3.58 | C[Si](C)(CN(C(=O)c1cccnc1Cl)C1CC1)c1ccccc1F [Example 17] |  | 79 |  |  | 86 | 
13 | 4.77 | CCc1ccccc1[Si](C)(C)CN(C(=O)c1nccnc1C(F)(F)F)C1CC1 [Example 21] | 75 | 86 | 98 |  | 100 | 
14 | 3.83 | C[Si](C)(CN(C(=O)c1cccnc1C(F)F)C1CC1)c1ccccc1Cl [Example 28] |  |  |  |  | 100 | 89
15 | 3.15 | C[Si](C)(CNC(=O)c1cccnc1C(F)F)c1cccc(Cl)c1 [Example 29] |  |  |  |  | 95 | 95
16 | 4.34 | CC[Si](C)(CN(C(=O)c1cccnc1Cl)C1CC1)c1ccccc1Cl (stereo not drawn) [Example 38] |  | 80 |  |  |  | 

Row | logP [1] | Compound | Efficacy (Puccinia recondita) [%] | Efficacy (Septoria tritici) [%] | Efficacy (Sphaerotheca fuliginea) [%] | Efficacy (Alternaria brassicae) [%] | Efficacy (Pyrenophora teres) [%] | Efficacy (Alternaria solani) [%]
17 | 3.25 | C[Si](C)(CNC(=O)c1cccnc1C(F)(F)F)c1ccccc1Cl [Example 39] |  | 96 |  |  |  | 
18 | 2.94 | C[Si](C)(CNC(=O)c1cccnc1Cl)c1ccccc1Cl [Example 40] |  | 96 |  |  |  | 
19 | 3.50 | C[Si](C)(CNC(=O)c1nccnc1C(F)(F)F)c1ccccc1Cl [Example 41] |  | 90 | 78 |  |  | 
20 | 4.41 | C[Si](C)(CN(C(=O)c1cccnc1C(F)(F)F)C1CC1)c1ccc(F)cc1Cl [Example 47] |  | 93 |  | 75 | 97 | 
21 | 4.59 | C[Si](C)(CN(C(=O)c1nccnc1C(F)(F)F)C1CC1)c1cc(F)ccc1Cl [Example 49] | 88 | 100 |  | 75 | 97 | 
22 | 3.89 | C[Si](C)(CN(C(=O)c1cccnc1C(F)F)C1CC1)c1cc(F)ccc1Cl [Example 51] | 88 | 100 |  |  | 97 | 
23 | 4.67 | C[Si](C)(CN(C(=O)c1nccnc1C(F)(F)F)C1CC1)c1ccc(F)cc1Cl [Example 52] |  | 97 | 94 | 100 | 100 | 
24 | 4.61 | C[Si](C)(CN(C(=O)c1nccnc1C(F)(F)F)C1CC1)c1ccccc1C(F)(F)F [Example 54] |  | 93 | 83 |  | 100 | 
25 | 4.39 | C[Si](C)(CN(C(=O)c1cccnc1C(F)(F)F)C1CC1)c1ccccc1C(F)(F)F [Example 55] |  | 64 |  |  | 97 | 
26 | 3.94 | C[Si](C)(CN(C(=O)c1cccnc1C(F)F)C1CC1)c1ccccc1C(F)(F)F [Example 56] |  | 100 | 83 | 88 | 100 | 
27 | 3.69 | C[Si](C)(CNC(=O)c1cccnc1C(F)F)c1cc(Cl)cc(Cl)c1 [Example 63] | 97 | 96 | 71 |  | 95 | 95
28 | 3.27 | C[Si](C)(CN(C(=O)c1cccnc1C(F)F)C1CC1)c1ccsc1 [Example 87] |  |  |  |  | 100 | 88
29 | 3.72 | C[Si](C)(CN(C(=O)c1cccnc1C(F)(F)F)C1CC1)c1ccsc1 [Example 91] |  |  |  |  | 70 | 78
30 | 4.16 | C[Si](C)(Cc1cccc(Cl)c1)CN(C(=O)c1cccnc1C(F)F)C1CC1 [Example 104] |  |  |  |  | 80 | 90
31 | 4.74 | C[Si](C)(Cc1ccc(Cl)cc1Cl)CN(C(=O)c1cccnc1C(F)F)C1CC1 [Example 110] |  |  |  |  | 95 | 70
32 | 4.77 | C[Si](C)(Cc1cc(Cl)cc(Cl)c1)CN(C(=O)c1cccnc1C(F)F)C1CC1 [Example 117] |  |  |  |  | 90 | 75
